Reference: patent publication EP0551518A1, “QUINOLINECARBOXYLIC ACID DERIVATIVE” (NIPPON SHINYAKU COMPANY, LIMITED, priority 1990, dated 1992)
Converted amounts (≈) assume the structure as drawn. Counter-ions that a name gives are not always drawn. Like-named read-outs stand apart in the source and are kept apart here.

Experiments:
Experiment in all cases: Determination of minimal inhibitory concentration of growth (MIC)-1, agar plate dilution method
Format in all cases: cell-based
Escherichia coli KC-14 = details: 10⁶ CFU/ml, 37°C
Protocol: (§1) Method: MIC was determined by the agar plate dilution method in accordance with the standard protocol of Japan Society of Chemotherapy (cf. Chemotherapy 29 (1), 76-79, 1981). Each bacterial culture obtained by 18-hour incubation in a sensitivity assay bouillon medium at 37°C was diluted to 10⁶ CFU/ml with the same medium. Using a microplanter, a sensitivity assay agar medium containing the test drug was inoculated with the diluted culture and incubated at 37°C for 18 hours. The MIC value was then determined. As reference drugs, 6-fluoro-1-methyl-4-oxo-7-(1-piperazinyl)-4H-[1,3]thiazeto[3,2-a]quinoline-3-carboxylic acid (referred to as control), ciprofloxacin (CPFX) and ofloxacin (OFLX) were used.

[1] = tested on: Staphylococcus epider-midis IFO 12993
Protocol: as §1

[2] = tested on: Bacillus subtilis ATCC 6633
Protocol: as §1

[3] = tested on: Staphylococcus aureus Smith
Protocol: as §1

[4] = tested on: Staphylococcus aureus 209-P JC-1
Protocol: as §1

[5] = tested on: Micrococcus luteus ATCC 9341
Protocol: as §1

[6] = tested on: Pseudomonas aeruginosa IFO 3445
Protocol: as §1

Proteus vulgaris HX-19 = tested on: Proteus vulgaris HX-19
Protocol: as §1

[7] = tested on: Enterococcus faecalis ATCC 29212
Protocol: as §1

[8] = tested on: Staphylococcus aureus OWPH 1984 (MRSA)
Protocol: as §1

[9] = tested on: Staphylococcus aureus OWPH 2125 (MRSA, PCA^r )
Protocol: as §1

[10] = Escherichia coli, KC14, 18 h, read-out: MIC
[11] = Staphylococcus, IFO12993, 18 h, Staphylococcus epider-midis IFO 12993, agar plate dilution, 10⁶ CFU/ml, 37°C, 18 hours, read-out: MIC
[12] = ATCC6633, Bacillus subtilis ATCC 6633, agar plate dilution, 10⁶ CFU/ml, 37°C, 18 hours, read-out: MIC
[13] = Staphylococcus aureus Smith, agar plate dilution, 10⁶ CFU/ml, 37°C, 18 hours, read-out: MIC
[14] = Staphylococcus aureus, 209P, 18 h, Staphylococcus aureus 209-P JC-1, agar plate dilution, 10⁶ CFU/ml, 37°C, 18 hours, read-out: MIC
[15] = ATCC9341, Micrococcus luteus ATCC 9341, agar plate dilution, 10⁶ CFU/ml, 37°C, 18 hours, read-out: MIC
[16] = Pseudomonas aeruginosa, IFO3445, 18 h, Pseudomonas aeruginosa IFO 3445, agar plate dilution, 10⁶ CFU/ml, 37°C, 18 hours, read-out: MIC
[17] = Proteus vulgaris, HX19, 18 h, Proteus vulgaris HX-19, agar plate dilution, 10⁶ CFU/ml, 37°C, 18 hours, read-out: MIC
[18] = ATCC29212, Enterococcus faecalis ATCC 29212, agar plate dilution, 10⁶ CFU/ml, 37°C, 18 hours, read-out: MIC
[19] = Staphylococcus aureus, MRSA, 18 h, Staphylococcus aureus OWPH 1984 (MRSA), agar plate dilution, 10⁶ CFU/ml, 37°C, 18 hours, read-out: MIC
[20] = Staphylococcus aureus, MRSA, 18 h, Staphylococcus aureus OWPH 2125 (MRSA, PCA^r), agar plate dilution, 10⁶ CFU/ml, 37°C, 18 hours, read-out: MIC
[21] = Staphylococcus aureus, MRSA, 18 h

Row | SMILES | MIC (Escherichia coli KC-14; [10]) [µg/mL] | MIC [1, 11] [µg/mL] | MIC [2, 12] [µg/mL] | MIC [3, 13] [µg/mL] | MIC [4, 14] [µg/mL] | MIC [5, 15] [µg/mL] | MIC [6, 16] [µg/mL] | MIC (Proteus vulgaris HX-19; [17]) [µg/mL] | MIC [7, 18] [µg/mL] | MIC [8, 19] [µg/mL] | MIC [9, 20] [µg/mL] | other results
1 | CCNc1ccc(-c2cc3c(cc2F)c(=O)c(C(=O)O)c2n3C(C)S2)cc1 (stereo not shown) [Example 47, 7-(4-Ethylaminophenyl)-6-fluoro-1-methyl-4-oxo-4H-[1,3]thiazeto[3,2-a]quinoline-3-carboxylic acid] | 0.2 (≈ 0.52 µM) | ≤ 0.006 | ≤ 0.006 | ≤ 0.006 | 0.025 (≈ 0.065 µM) | 0.39 (≈ 1.01 µM) | 1.56 (≈ 4.06 µM) | 0.05 (≈ 0.13 µM) | 0.1 (≈ 0.26 µM) | 0.025 (≈ 0.065 µM) | 0.05 (≈ 0.13 µM) | 
2 | COc1ccc(-c2cc3c(cc2F)c(=O)c(C(=O)O)c2n3C(C)S2)cc1 (stereo not shown) [Example 38, 6-Fluoro-7-(4-methoxyphenyl)-1-methyl-4-oxo-4H-[1,3]th-iazeto[3,2-a]quinoline-3-carboxylic acid] | 0.39 (≈ 1.05 µM) | 0.1 (≈ 0.269 µM) | 0.012 (≈ 0.0323 µM) | 0.025 (≈ 0.0673 µM) | 0.1 (≈ 0.269 µM) | 0.39 (≈ 1.05 µM) | 1.56 (≈ 4.2 µM) | 0.78 (≈ 2.1 µM) | 0.2 (≈ 0.539 µM) | 0.025 (≈ 0.0673 µM) | 0.2 (≈ 0.539 µM) | 
3 | COc1c(-c2ccc(N)cc2)c(F)cc2c(=O)c(C(=O)O)c3n(c12)C(C)S3 (stereo not shown) [Example 27, 7-(4-Aminophenyl)-6-fluoro-8-methoxy-1-methyl-4-oxo-4H[1,3]thiazeto[3,2-a]quinoline-3-carboxylic acid] | 0.1 (≈ 0.259 µM) | ≤ 0.006 | ≤ 0.006 | ≤ 0.006 | 0.012 (≈ 0.0311 µM) | 0.1 (≈ 0.259 µM) | 0.78 (≈ 2.02 µM) | 0.012 (≈ 0.0311 µM) | 0.05 (≈ 0.129 µM) | ≤ 0.006 | ≤ 0.006 | 
4 | O=C(O)c1cn(C2CC2)c2cc(N3CCNCC3)c(F)cc2c1=O [CPFX, ciprofloxacin, reference compound] | 0.025 (≈ 0.0754 µM) |  |  |  |  |  |  |  |  |  |  | MIC ([1]; Staphylococcus, IFO12993, 18 h): 0.39 µg/mL (≈ 1.18 µM); MIC ([2]; Bacillus subtilis, ATCC6633, 18 h): 0.05 µg/mL (≈ 0.151 µM); MIC ([3]; Staphylococcus aureus, 18 h): 0.2 µg/mL (≈ 0.604 µM); MIC ([4]; Staphylococcus aureus, 209P, 18 h): 0.2 µg/mL (≈ 0.604 µM); MIC ([5]; Micrococcus luteus, ATCC9341, 18 h): 0.39 µg/mL (≈ 1.18 µM); MIC ([6]; Pseudomonas aeruginosa, IFO3445, 18 h): 0.2 µg/mL (≈ 0.604 µM); MIC (Proteus vulgaris HX-19; Proteus vulgaris, HX19, 18 h): 0.025 µg/mL (≈ 0.0754 µM); MIC ([7]; Enterococcus faecalis, ATCC29212, 18 h): 1.56 µg/mL (≈ 4.71 µM); MIC [8, 21]: 0.39 µg/mL (≈ 1.18 µM); MIC [9, 21]: 12.5 µg/mL (≈ 37.7 µM)
5 | Nc1ccc(-c2cc3c(cc2F)c(=O)c(C(=O)O)c2n3CS2)cc1 [Example 31, 7-(4-Aminophenyl)-6-fluoro-4-oxo-4H-[1,3]thiazeto[3,2-a]quinoline-3-carboxylic acid] | 0.025 (≈ 0.073 µM) | ≤ 0.006 | ≤ 0.006 | ≤ 0.006 | 0.012 (≈ 0.0351 µM) | 1.56 (≈ 4.56 µM) | 0.2 (≈ 0.584 µM) | ≤ 0.006 | 0.1 (≈ 0.292 µM) | 0.025 (≈ 0.073 µM) | 0.2 (≈ 0.584 µM) | 
6 | O=C(O)c1c2n(c3c(F)c(-c4ccccc4)c(F)cc3c1=O)CS2 [Example 19, 6,8-Difluoro-4-oxo-7-phenyl-4H-[1,3]thiazeto[3,2-a]quinoline-3-carboxylic acid] | 0.1 (≈ 0.29 µM) | 0.025 (≈ 0.0724 µM) | ≤ 0.006 | ≤ 0.006 | 0.012 (≈ 0.0347 µM) | 6.25 (≈ 18.1 µM) | 0.78 (≈ 2.26 µM) | 0.012 (≈ 0.0347 µM) | 0.2 (≈ 0.579 µM) | 0.025 (≈ 0.0724 µM) | 0.2 (≈ 0.579 µM) | 
7 | CC1COc2c(N3CCN(C)CC3)c(F)cc3c(=O)c(C(=O)O)cn1c23 (racemic) [OFLX, ofloxacin, reference compound] | 0.05 (≈ 0.138 µM) | 0.39 (≈ 1.08 µM) | 0.1 (≈ 0.277 µM) | 0.2 (≈ 0.553 µM) | 0.39 (≈ 1.08 µM) | 3.13 (≈ 8.66 µM) | 0.78 (≈ 2.16 µM) | 0.05 (≈ 0.138 µM) | 1.56 (≈ 4.32 µM) | 0.39 (≈ 1.08 µM) | 6.25 (≈ 17.3 µM) | 
8 | CC1Sc2c(C(=O)O)c(=O)c3cc(F)c(-c4ccc(O)cc4)cc3n21 (stereo not shown) [Example 44, 6-Fluoro-7-(4-hydroxyphenyl)-1-methyl-4-oxo-4H-[1,3]thiazeto[3,2-a]quinoline-3-carboxylic acid] | 0.1 (≈ 0.28 µM) | ≤ 0.006 | ≤ 0.006 | ≤ 0.006 | ≤ 0.006 | 0.1 (≈ 0.28 µM) | 0.2 (≈ 0.56 µM) | 0.025 (≈ 0.07 µM) | 0.1 (≈ 0.28 µM) | 0.012 (≈ 0.0336 µM) | 0.05 (≈ 0.14 µM) | 
9 | CC1Sc2c(C(=O)O)c(=O)c3cc(F)c(-c4ccccc4)c(F)c3n21 (stereo not shown) [Example 24, 6,8-Difluoro-1-methyl-4-oxo-7-phenyl-4H-[1,3]thiazeto[3,2-a]quinoline-3-carboxylic acid] | 0.2 (≈ 0.557 µM) | 0.012 (≈ 0.0334 µM) | ≤ 0.006 | ≤ 0.006 | 0.012 (≈ 0.0334 µM) | 0.39 (≈ 1.09 µM) | 0.39 (≈ 1.09 µM) | 0.1 (≈ 0.278 µM) | 0.05 (≈ 0.139 µM) | 0.012 (≈ 0.0334 µM) | 0.05 (≈ 0.139 µM) | 
10 | CC1Sc2c(C(=O)O)c(=O)c3cc(F)c(-c4ccc(N)cc4)cc3n21 (stereo not shown) [Example 56, 7-(4-Aminophenyl)-6-fluoro-1-methyl-4-oxo-4H-[1,3]thiazeto[3,2-a]quinoline-3-carboxylic acid 1/2 sulfate] |  |  |  |  |  |  |  |  |  |  |  | MIC (Escherichia coli KC-14; 18 hours): 0.05 μ g/ml; MIC ([1]; Staphylococcus epider-midis IFO 12993, agar plate dilution, 10⁶ CFU/ml, 37°C, 18 hours): 0.012 μ g/ml; MIC ([2]; Bacillus subtilis ATCC 6633, agar plate dilution, 10⁶ CFU/ml, 37°C, 18 hours): ≤ 0.006 μ g/ml; MIC ([3]; Staphylococcus aureus Smith, agar plate dilution, 10⁶ CFU/ml, 37°C, 18 hours): ≤ 0.006 μ g/ml; MIC ([4]; Staphylococcus aureus 209-P JC-1, agar plate dilution, 10⁶ CFU/ml, 37°C, 18 hours): 0.025 μ g/ml; MIC ([5]; Micrococcus luteus ATCC 9341, agar plate dilution, 10⁶ CFU/ml, 37°C, 18 hours): 0.20 μ g/ml; MIC ([6]; Pseudomonas aeruginosa IFO 3445, agar plate dilution, 10⁶ CFU/ml, 37°C, 18 hours): 0.20 μ g/ml; MIC (Proteus vulgaris HX-19; Proteus vulgaris HX-19, agar plate dilution, 10⁶ CFU/ml, 37°C, 18 hours): ≤ 0.006 μ g/ml; MIC ([7]; Enterococcus faecalis ATCC 29212, agar plate dilution, 10⁶ CFU/ml, 37°C, 18 hours): 0.05 μ g/ml; MIC ([8]; Staphylococcus aureus OWPH 1984 (MRSA), agar plate dilution, 10⁶ CFU/ml, 37°C, 18 hours): 0.012 μ g/ml; MIC ([9]; Staphylococcus aureus OWPH 2125 (MRSA, PCA^r), agar plate dilution, 10⁶ CFU/ml, 37°C, 18 hours): 0.05 μ g/ml
11 | O=C(O)c1c2n(c3cc(-c4ccccc4)c(F)cc3c1=O)CS2 [Example 18, 6-Fluoro-4-oxo-7-phenyl-4H-[1,3]thiazeto[3,2-a]quinoline-3-carboxylic acid] | 0.2 (≈ 0.611 µM) | 0.1 (≈ 0.305 µM) | ≤ 0.006 | ≤ 0.006 | 0.012 (≈ 0.0367 µM) | 6.25 (≈ 19.1 µM) | 0.39 (≈ 1.19 µM) | 0.025 (≈ 0.0764 µM) | 0.39 (≈ 1.19 µM) | 0.025 (≈ 0.0764 µM) | 0.2 (≈ 0.611 µM) | 
